Read-outs that look alike come from different tables or passages of the source. Blank lines part the entries; values can stand above or below the compound they belong to.
Legend:
OATP1A2 = details: in vitro; cited from earlier work
OATP1B1 = details: in vitro; cited from earlier work
OATP2B1 = details: in vitro; cited from earlier work
[1] = cited from earlier work
[2] = assay type: in vivo, human; details: for A e, amount excreted unchanged into urine over 24 hours / CL renal / AUC(0-t) / AUC(0-inf): geometric mean; for CL renal: plasma and urine, CLrenal; for AUC(0-inf): AUC0–∞
[3] = Acute hemodynamic response to lisinopril; assay type: in vivo, human
PEPT1 = details: Caco-2 cells; cited from earlier work
[4] = stated as similar for lisinopril and nadolol

Compound: O=C(O[C@@H]1Cc2c(O)cc(O)cc2O[C@@H]1c1cc(O)c(O)c(O)c1)c1cc(O)c(O)c(O)c1 [EGCG, (–)‐epigallocatechin gallate]
- inhibition of OATP1A2 activity (OATP1A2): have been shown to inhibit
- inhibition of OATP1B1 activity (OATP1B1): have been shown to inhibit
- inhibition of OATP2B1 activity (OATP2B1): have been shown to inhibit

Compound: CC(C)(C)NCC(O)COc1cccc2c1CC(O)C(O)C2 (stereo not drawn) [nadolol]
- oral bioavailability [1, 4]: ca. 30%

- decrease in AUC0-24 in the GTE phase compared with control phase ([2]; GTE vs control, P < 0.001): 69%
- decrease in AUC0–∞ in the GTE phase compared with control phase ([2]; GTE vs control, P < 0.001): 67%
- decrease in C max in the GTE phase compared with control phase ([2]; GTE vs control, P < 0.001): 71%
- A e, amount excreted unchanged into urine over 24 hours ([2]; GTE): 0.54 mg
- CL renal ([2]; both, human, po, 10 mg, GTE): 56.9 mL/min
- CL renal ([2]; both, human, po, 10 mg, control (water)): 57.7 mL/min
- Tmax ([2]; both, human, plasma, po, 10 mg): 6 h
- AUC(0-t) ([2]; both, human, plasma, po, 10 mg, AUC0–24, GTE): 157 ng·h/mL
- AUC(0-t) ([2]; both, human, plasma, po, 10 mg, AUC0–24, control (water)): 504 ng·h/mL
- AUC(0-inf) ([2]; both, human, plasma, po, 10 mg, GTE): 186 ng·h/mL
- AUC(0-inf) ([2]; both, human, plasma, po, 10 mg, control (water)): 554 ng·h/mL
- A e, amount excreted unchanged into urine over 24 hours ([2]; control (water)): 1.75 mg
- A e GMR (GTE/control) ([2]; geometric mean ratio GTE/control): 0.307
Compound: NCCCC[C@H](N[C@@H](CCc1ccccc1)C(=O)O)C(=O)N1CCC[C@H]1C(=O)O [lisinopril]
- adverse events ([2]; ten subjects who completed the study, both phases): no adverse events
- DBP ([3]; GTE phase, 6 hours after 10 mg oral lisinopril, mean ± SD, baseline 68 ± 10 mmHg): 55 ± 4 mmHg
- mean maximum decrease of DBP from baseline ([3]; both phases, at 6 hours after the administration): about 20%
- SBP and PR, control vs GTE phases ([3]; single oral dose 10 mg lisinopril): no differences
- oral bioavailability [1]: 29%
- oral bioavailability [1, 4]: ca. 30%

Compound: (–)‐epicatechin gallate
- inhibition of uptake transport of glycyl-sarcosine, a typical substrate of PEPT1 (PEPT1): not inhibiting
- inhibition of OATP1A2 activity (OATP1A2): have been shown to inhibit
- inhibition of OATP1B1 activity (OATP1B1): have been shown to inhibit
- inhibition of OATP2B1 activity (OATP2B1): have been shown to inhibit

Source: publication PMC7993260 (Clinical and Translational Science, 2020)
